Consider three compounds from US6812034B2, “Fetuin-MGP-mineral complex in serum assayed to determine calcification risk” (The Regents of the University of California, priority 2000, dated 2004).

Assay type in all cases: in vivo, rat
Data set [1] relates to warfarin-induced artery calcification. The data set is described as follows: artery calcification in rats treated with warfarin for 2 or 4 weeks. As to conditions: both carotid arteries. The protocol:
(§1) Tissues were subsequently washed extensively with buffer and extracted with 1 ml of 10% formic acid for 24 h at room temperature, as described. Calcium levels in serum were determined colorimetrically using cresolphthalein complexone (Sigma) and phosphate levels in serum and in acid tissue extracts were determined calorimetrically as described (Zhu et al. (1994) Cardiology, 85: 370-377). Tissue sectioning and staining were carried out by Biomedical Testing Services, Inc., (San Diego, Calif.). The effect of bisphosphonates on artery calcification was also examined in rats treated with warfarin alone using procedures which have been described elsewhere (Price et al. (1998) Arterioscler. Thromb. Vasc. Biol. 18: 1400-1407).

The nature of data set [2]: serum levels of calcium, phosphate, MGP and BGP after subcutaneous bisphosphonate. The protocol:
Rats were fed rodent diet 5001 (Purina Mills Inc., St. […] Etidronate was dissolved with 0.15 M NaCl, titrated to pH 7.4 with dilute NaOH, and administered subcutaneously to forty-day-old male rats. Control animals received injections of 0.15 M NaCl only. […] At the times indicated in FIG. 1, each rat was anesthetized with metofane and a 400 μl sample of blood was withdrawn from the jugular vein. Blood samples were allowed to clot for 15 min at room temperature and serum was obtained after centrifugation in a clinical centrifuge and then frozen rapidly on dry ice and stored at -70° C. until later analysis. The same procedure was followed for the second time course experiment (FIG. 10), with the difference that the etidronate dose was increased to 32 mg per 100 g body weight. […] Two hours later, all rats were injected with etidronate at a dose of 8 mg/100 g (t=0), and 400 μl of blood were removed from each animal at the indicated times for biochemical analyses. […] In neither control group could we detect a significant change in serum levels of calcium, phosphate, or MGP at any time point. […] Rice et al. (1994) J. Bone Min. Res. 9: 567-576). Calcium levels in serum and other samples were determined colorimetrically using cresolphthalein complexone (Sigma) and phosphate levels in serum, effluent fractions, and other samples were determined calorimetrically as described (Chen et al. (1956) Anal. Chem. 28(11): 1756-1758). For determination of ionic calcium, freshly obtained blood samples were immediately placed into a 2.5 ml gold top vacutainer tube to avoid out gassing of CO2 and the associated shift in pH. […] Electrophoresis was carried out using 4 to 20% polyacrylamide gels (Novex, Inc., San Diego, Calif.) run in Tris-glycine buffer containing SDS. Protein sequencing was carried out on bands transferred to PVDF membranes using a Procise 494 Sequencer (ABI division, PE Biosystems, Foster City, Calif.).

The nature of data set [3]: weight, tibia length and serum calcium and phosphate in warfarin-treated rats. As to conditions: for mg Ca dl serum / mg P dl serum: 4 weeks. The source says:
This procedure induces artery calcification within 2 weeks without the presence of hypercalcemia.

A short description of data set [4]: serum levels of calcium and phosphate in rats treated with vitamin D plus warfarin. As to conditions: 84 h; for reduction of serum phosphate: two highest doses. Here is the method: For measurement of mineral accumulation in arteries, each tissue was removed within 30 minutes of death and immediately frozen. Tissues were subsequently washed extensively with buffer and extracted with 1 ml of 10% formic acid for 24 h at room temperature, as described. Calcium levels in serum were determined colorimetrically using cresolphthalein complexone (Sigma) and phosphate levels in serum and in acid tissue extracts were determined calorimetrically as described (Zhu et al. (1994) Cardiology, 85: 370-377). Tissue sectioning and staining were carried out by Biomedical Testing Services, Inc., (San Diego, Calif.). […]

Data set [5] relates to aorta calcification in rats treated with vitamin D plus warfarin. As to the kind of experiment: von Kossa staining for calcification in rats treated with vitamin D plus warfarin. As to conditions: for Histology Score Observer #1 x ± S.D. / Histology Score Observer #2 x ± S.D.: 84 h; for dose that completely eliminated von Kossa staining for mineral in the abdominal aorta: 84 h after first vitamin D. Here is the method:
For measurement of mineral accumulation in arteries, each tissue was removed within 30 minutes of death and immediately frozen. Tissues were subsequently washed extensively with buffer and extracted with 1 ml of 10% formic acid for 24 h at room temperature, as described. Calcium levels in serum were determined colorimetrically using cresolphthalein complexone (Sigma) and phosphate levels in serum and in acid tissue extracts were determined calorimetrically as described (Zhu et al. (1994) Cardiology, 85: 370-377). Tissue sectioning and staining were carried out by Biomedical Testing Services, Inc., (San Diego, Calif.).
Male Sprague Dawley rats were fed ad libitum with rodent diet 5001 (Purina Mills Inc., St. Louis, Mo.), a diet that is 0.67% phosphorus and 0.95% calcium by weight. This diet contains 500 μg per kg of phylloquinone and has no added menadione. In all experiments, animals were killed by exsanguination while under metofane anesthetic, and selected tissues were removed immediately and fixed in 10% buffered formalin or frozen at −20° C. for later studies. All animal experiments were approved by the UCSD animal subjects committee.

The subject of data set [6] is vitamin D-induced artery calcification. As to the kind of experiment: mineral phosphate accumulation in acid demineralization extracts of thoracic aorta and carotid arteries, vitamin D plus warfarin. As to conditions: for Artery Calcification Relative potency: relative to etidronate = 1. The protocol: as §1, with “first” for “also”, “in which artery calcification was induced by treatment” for “treated”, “plus high doses of vitamin D. […] All animals were killed by exsanguination at 96 h. […] All animals were killed by exsanguination at 96 h after the first vitamin D dose. […] All animals were killed by exsanguination 96 h after the first vitamin D injection.” for “alone using procedures which have been described elsewhere (Price et al. (1998) Arterioscler. Thromb. Vasc. Biol. 18: 1400-1407).”

Data set [7] is described as follows: Sephacryl S300 gel filtration of serum. As to conditions: serum 6 h after etidronate, concurrent warfarin. The protocol: The serum mineral complex was characterized by gel filtration using 25 ml columns of Sephacryl S-300 HR which were prepared in disposable plastic pipets and were equilibrated with 20 mM HEPES pH 7.4, 0.15 M NaCl and 10 mM CaCl2 at room temperature. Serum was obtained from rats 6 h after administration of etidronate at a dose of 8 mg/100 g, and 1 ml aliquots were immediately applied to the Sephacryl column. Fractions of 0.5 ml were then collected and analyzed to determine the level of phosphate and MGP (see below).
(In gel filtration, larger molecules generally elute earlier.)

Where [8] appears, read: 0.025 mg P/kg/day plus warfarin.
The mark [9] stands for this setting: 0.0004 mg P/kg/day sc, score 0-5.
Where [10] appears, read: 0.002 mg P/kg/day sc, score 0-5.
[11] abbreviates: 0.010 mg P/kg/day sc, score 0-5.
Where [12] appears, read: 0.050 mg P/kg/day sc, score 0-5.
[13] abbreviates: 0.00036 mg P/kg/day sc, score 0-5 (5 most calcified).
Setting [14] is: 0.0018 mg P/kg/day sc, score 0-5.
Setting [15] is: 0.009 mg P/kg/day sc, score 0-5.
Setting [16] is: 0.045 mg P/kg/day sc, score 0-5.
The mark [17] stands for this setting: 15.4 mg warfarin per 100 g 2 h before 8 mg/100 g etidronate.

Molecules are shown by their SMILES. “Also recorded” adds a separate entry of the source.

Regarding `NCCCC(O)(P(=O)(O)O)P(=O)(O)O` [Alendronate, (4-amino-1-hydroxybutylidene)bis-phosphonate], the results for the “nmol PO4 Carotid” value in data set [1] (setting [8]) and in data set [1] (0.25 mg P/kg/day plus warfarin) were 374.0 ± 217.4 nmol and 63.7 ± 43.1 nmol, respectively. The “effect on serum calcium, phosphate and MGP levels” value in data set [2] (4 mg/100 g dose, 1, 2, 6, 12 and 24 h, data not shown) is on record as “no effect”. The “mg Ca dl serum” value in data set [3] (setting [8]) came out at 10.0 ± 0.1 mg/dL; in data set [3] (0.25 mg P/kg/day plus warfarin) it was 10.8 ± 0.1 mg/dL. Moreover, the “mg P dl serum” value in data set [3] (setting [8]) came to 10.0 ± 0.1 mg/dL; in data set [3] (0.25 mg P/kg/day plus warfarin), 10.9 ± 0.7 mg/dL. Besides, the “effect on bone growth or weight gain” value in data set [3] (0.025 and 0.25 mg P/kg/day, warfarin 4 weeks) was “without affecting bone growth or weight gain”. The “Serum Ca” value in data set [4] (0.0004 mg P/kg/day) was 13.3 ± 0.7 mg/dL; in data set [4] (0.01 mg P/kg/day), 15.9 ± 0.4 mg/dL. The “Serum P” value in data set [4] (0.0004 mg P/kg/day) was found to be 10.8 ± 1.2 mg/dL; in data set [4] (0.002 mg P/kg/day), 10.2 ± 0.6 mg/dL; in data set [4] (0.01 mg P/kg/day), 10.0 ± 0.9 mg/dL; in data set [4] (0.05 mg P/kg/day) it was 9.9 ± 0.5 mg/dL; in data set [4] (0.25 mg P/kg/day), 9.5 ± 0.7 mg/dL. For the same compound, the “reduction of serum phosphate” value in data set [4] is reported as “about 16%”. For the same compound, the “Histology Score Observer #1 x ± S.D.” value in data set [5] (setting [9]) was 2.8 ± 1.0; in data set [5] (setting [10]), 2.5 ± 0.6; in data set [5] (setting [11]) it was 2.0 ± 1.8; in data set [5] (setting [12]) it was 0.8 ± 0.5; in data set [5] (0.25 mg P/kg/day sc, score 0-5) it was 0.0 ± 0.0. Also, the “Histology Score Observer #2 x ± S.D.” value in data set [5] (setting [9]) is listed as 3.3 ± 1.3; in data set [5] (setting [10]), 2.0 ± 0.8; in data set [5] (setting [11]), 2.5 ± 1.3; in data set [5] (setting [12]) it was 0.4 ± 0.5; in data set [5] (0.25 mg P/kg/day sc, score 0-5), 0.0 ± 0.0. In addition, the “dose that completely eliminated von Kossa staining for mineral in the abdominal aorta” value in data set [5] is 0.25 mg P/kg/day.

As for `CCCCCN(C)CCC(O)(P(=O)(O)O)P(=O)(O)O` [Ibandronate, (1-hydroxy-3-(methylpentylamino)propylidene)bis-phosphonate], the “Serum Ca” value in data set [4] (0.00036 mg P/kg/day) was determined as 13.8 ± 0.6 mg/dL; in data set [4] (0.0018 mg P/kg/day) it was 15.5 ± 0.9 mg/dL; in data set [4] (0.009 mg P/kg/day) it was 14.9 ± 0.6 mg/dL; in data set [4] (0.045 mg P/kg/day), 15.4 ± 0.3 mg/dL. Also, the “Serum P” value in data set [4] (0.00036 mg P/kg/day) is 9.9 ± 0.5 mg/dL; in data set [4] (0.0018 mg P/kg/day), 10.3 ± 0.6 mg/dL; in data set [4] (0.009 mg P/kg/day), 10.4 ± 0.7 mg/dL; in data set [4] (0.045 mg P/kg/day) it was 9.9 ± 0.4 mg/dL. For the same compound, the “reduction of serum phosphate” value in data set [4] was around 11%. The “dose required to reduce the extent of mineralization by half in the thoracic aorta” value in data set [6] (84 h, FIG. 3) is reported as 0.0002 mg P/kg/day. The “dose required to reduce the extent of mineralization by half in the carotid artery” value in data set [6] (84 h, FIG. 4) stood at 0.00018 mg P/kg/day. Besides, in data set [6] (daily subcutaneous dose, vitamin D-induced artery calcification, male rats initially 200 g), the “Artery Calcification Dose for 50% inhibition” value stood at 0.00019 mg P/kg/day. In addition, the “subcutaneous dose required for 50% inhibition of artery calcification” value in data set [6] (rat, FIGS. 3 and 4) is 0.2 μg P/kg/day. Also, the “Artery Calcification Relative potency” value was 10500 in data set [6] and 10,500 in data set [6] (listed as ibandronate). Moreover, the “Histology Score Observer #1 x ± S.D.” value in data set [5] (setting [13]) was 1.0 ± 0.8; in data set [5] (setting [14]), 0.0 ± 0.0; in data set [5] (setting [15]), 0.0 ± 0.0; in data set [5] (setting [16]) it was 0.0 ± 0.0. For the same compound, the “Histology Score Observer #2 x ± S.D.” value in data set [5] (setting [13]) came to 1.0 ± 0.8; in data set [5] (setting [14]), 0.0 ± 0.0; in data set [5] (setting [15]) it was 0.0 ± 0.0; in data set [5] (setting [16]), 0.0 ± 0.0. Further, the “dose that completely eliminated von Kossa staining for mineral in the abdominal aorta” value in data set [5] is at least 0.0018 mg P/kg/day.

Turning to `CC(=O)CC(c1ccccc1)c1c(O)c2ccccc2oc1=O` (centres unmarked) [warfarin], in data set [7], the “MGP levels in the high molecular weight position, of the level in vitamin K-replete, etidronate treated rats” value stood at 5% and the “phosphate levels in the high molecular weight, excluded volume position vs vitamin K-replete, etidronate treated rats” value was “comparable”. In addition, in data set [2] (setting [17]), the “effect on the increase in serum MGP following etidronate” value is reported as “prevents the increase in serum MGP; also recorded: blocked the increase in serum MGP”; the “effect on the time course of the elevation in serum calcium and phosphate following etidronate” value is “did not affect”. For the same compound, the “effect on serum levels of MGP” value in data set [2] (animals which did not receive etidronate) is reported as “no effect”.
